Source: patent US9833497B2, “Human originated EGF domain proteins and use of the same” (CHENGDU SOURCEBIO LIMITED-LIABILITY COMPANY, priority 2013, dated 2017)

Columns and labels:
Type in all cases: cell-based
Aeromonas hydrophila = experiment: MIC against Gram-negative bacteria: Aeromonas hydrophila; conditions: 5×10^5 CFU/mL
How it was run: (§1)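 MIC, the lowest recombinant protein concentration giving no bacterial growth, found by two-fold serial dilution of human EGF-domain proteins in triplicate. Inoculum 5×10^5 CFU/mL in LB from cultures at McFarland 0.5; plates incubated at 37° C, 175 rpm shaking.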

Pseudomonas aeruginosa = experiment: MIC against Gram-negative bacteria: Pseudomonas aeruginosa; conditions: 5×10^5 CFU/mL
How it was run: as §1

E. coli BL21 = experiment: MIC against Gram-negative bacteria: E. coli BL21; conditions: 5×10^5 CFU/mL
How it was run: as §1

E. coli DH5α = experiment: Antibacterial activity: MIC and growth curve against E. coli DH5α in 96-well plate; conditions: minimal inhibitory concentration against E. coli DH5α; 96-well plate, 5×10^5 CFU/mL, 37° C., judged after 8 h
How it was run: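 Log-phase bacteria (OD600 ~0.5) resuspended in LB at 5×10^5 CFU/mL, exposed to recombinant protein at 50, 25, 12.5 μg/mL final in triplicate, 37 °C shaking at 175 rpm. OD600 read every 30 min; MIC is lowest concentration showing no growth.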

Serratia marcescens = experiment: MIC against Gram-negative bacteria: Serratia marcescens; conditions: 5×10^5 CFU/mL
How it was run: as §1

Proteus mirabilis = experiment: MIC against Gram-negative bacteria: Proteus mirabilis; conditions: 5×10^5 CFU/mL
How it was run: as §1

Enterobacter cloacae = experiment: MIC against Gram-negative bacteria: Enterobacter cloacae; conditions: 5×10^5 CFU/mL
How it was run: as §1

Klebsiella pneumonia = experiment: MIC against Gram-negative bacteria: Klebsiella pneumonia; conditions: 5×10^5 CFU/mL
How it was run: as §1

Moraxella catarrhalis = experiment: MIC against Gram-negative bacteria: Moraxella catarrhalis; conditions: 5×10^5 CFU/mL
How it was run: as §1

Citrobacter diversus = experiment: MIC against Gram-negative bacteria: Citrobacter diversus; conditions: 5×10^5 CFU/mL
How it was run: as §1

Proteus vulgaris = experiment: MIC against Gram-negative bacteria: Proteus vulgaris; conditions: 5×10^5 CFU/mL
How it was run: as §1

[1] = 10 h cultivation at 37° C., two-fold serial dilution
[2] = Aeromonas hydrophila, 96-well plate, 37° C., 10 h
[3] = Pseudomonas aeruginosa, 96-well plate, 37° C., 10 h
[4] = E. coli BL21, 96-well plate, 37° C., 10 h
[5] = Serratia marcescens, 96-well plate, 37° C., 10 h
[6] = Proteus mirabilis, 96-well plate, 37° C., 10 h
[7] = Enterobacter cloacae, 96-well plate, 37° C., 10 h
[8] = Klebsiella pneumonia, 96-well plate, 37° C., 10 h
[9] = Moraxella catarrhalis, 96-well plate, 37° C., 10 h
[10] = Citrobacter diversus, 96-well plate, 37° C., 10 h
[11] = Proteus vulgaris, 96-well plate, 37° C., 10 h

Row | Substance | MIC (E. coli DH5α) | MIC A. hydrophila (Aeromonas hydrophila; [1]) | MIC P. aeruginosa (Pseudomonas aeruginosa; [1]) | MIC E. coli BL21 (E. coli BL21; [1]) | MIC S. marcescens (Serratia marcescens; [1]) | MIC P. mirabilis (Proteus mirabilis; [1]) | MIC E. cloacae (Enterobacter cloacae; [1]) | MIC K. pneumonia (Klebsiella pneumonia; [1]) | MIC M. catarrhalis (Moraxella catarrhalis; [1]) | MIC C. diversus (Citrobacter diversus; [1]) | MIC P. vulgaris (Proteus vulgaris; [1]) | MIC against A. hydrophila (Aeromonas hydrophila; [2]) | MIC against P. aeruginosa (Pseudomonas aeruginosa; [3]) | MIC against E. coli BL21 (E. coli BL21; [4]) | MIC against S. marcescens (Serratia marcescens; [5]) | MIC against P. mirabilis (Proteus mirabilis; [6]) | MIC against E. cloacae (Enterobacter cloacae; [7]) | MIC against K. pneumonia (Klebsiella pneumonia; [8]) | MIC against M. catarrhalis (Moraxella catarrhalis; [9]) | MIC against C. diversus (Citrobacter diversus; [10]) | other results
1 | PRT1451 (EARWCSECHSNATCTEDEAVTTCTCQEGFTGDGLTCV; listed as Homo sapiens) | 25 µg/mL | – | – | – | – | – | – | – | – | – | – | – | – | – | – | – | – | – | – | – | MIC against A. hydrophila (Aeromonas hydrophila; Aeromonas hydrophila, 10 h cultivation at 37° C.): 12.5 µg/mL; MIC against P. aeruginosa (Pseudomonas aeruginosa; Pseudomonas aeruginosa, 10 h cultivation at 37° C.): 25 µg/mL; MIC against E. coli BL21 (E. coli BL21; E. coli BL21, 10 h cultivation at 37° C.): 12.5 µg/mL; MIC against S. marcescens (Serratia marcescens; Serratia marcescens, 10 h cultivation at 37° C.): 12.5 µg/mL; MIC against P. mirabilis (Proteus mirabilis; Proteus mirabilis, 10 h cultivation at 37° C.): 12.5 µg/mL; MIC against E. cloacae (Enterobacter cloacae; Enterobacter cloacae, 10 h cultivation at 37° C.): 25 µg/mL; MIC against K. pneumonia (Klebsiella pneumonia; Klebsiella pneumonia, 10 h cultivation at 37° C.): 12.5 µg/mL; MIC against M. catarrhalis (Moraxella catarrhalis; Moraxella catarrhalis, 10 h cultivation at 37° C.): 12.5 µg/mL; MIC against C. diversus (Citrobacter diversus; Citrobacter diversus, 10 h cultivation at 37° C.): 25 µg/mL; MIC against P. vulgaris (Proteus vulgaris; Proteus vulgaris, 10 h cultivation at 37° C.): 12.5 µg/mL
2 | PRT1156 (IIGQCQPHVCFHGNCSNITSNSFICECDEQFSGPFCE; listed as Homo sapiens) | 50 µg/mL | 50 µg/mL | 12.5 µg/mL | 25 µg/mL | 50 µg/mL | 50 µg/mL | 25 µg/mL | 25 µg/mL | 12.5 µg/mL | 25 µg/mL | 12.5 µg/mL | – | – | – | – | – | – | – | – | – | –
3 | PRT118 (DVDECVGPGGPLCDSLCFNTQGSFHCGCLPGWVLAPNGVSCT; listed as Homo sapiens) | 12.5 µg/mL | – | – | – | – | – | – | – | – | – | – | – | – | – | – | – | – | – | – | – | MIC (μg/mL) A. hydrophila (Aeromonas hydrophila; [2]): 12.5 µg/mL; MIC (μg/mL) P. aeruginosa (Pseudomonas aeruginosa; [3]): 12.5 µg/mL; MIC (μg/mL) E. coli BL21 (E. coli BL21; [4]): 12.5 µg/mL; MIC (μg/mL) S. marcescens (Serratia marcescens; [5]): 12.5 µg/mL; MIC (μg/mL) P. mirabilis (Proteus mirabilis; [6]): 12.5 µg/mL; MIC (μg/mL) E. cloacae (Enterobacter cloacae; [7]): 12.5 µg/mL; MIC (μg/mL) K. pneumonia (Klebsiella pneumonia; [8]): 12.5 µg/mL; MIC (μg/mL) M. catarrhalis (Moraxella catarrhalis; [9]): 25 µg/mL; MIC (μg/mL) C. diversus (Citrobacter diversus; [10]): 12.5 µg/mL; MIC (μg/mL) P. vulgaris (Proteus vulgaris; [11]): 25 µg/mL
4 | PRT1198 (EHDECGSGQHNCDENAICTNTVQGHSCTCKPGYVGNGTICR; listed as Homo sapiens) | 25 µg/mL | – | – | – | – | – | – | – | – | – | – | 50 µg/mL | 25 µg/mL | 12.5 µg/mL | 12.5 µg/mL | 50 µg/mL | 12.5 µg/mL | 50 µg/mL | 12.5 µg/mL | 25 µg/mL | MIC against P. vulgaris (Proteus vulgaris; [11]): 25 µg/mL
5 | PRT1072 (TQQVCAGYCANNSTCTVNQGNQPQCRCLPGFLGDRCQ; listed as Homo sapiens) | 50 µg/mL | 12.5 µg/mL | 12.5 µg/mL | 12.5 µg/mL | 12.5 µg/mL | 12.5 µg/mL | 50 µg/mL | 25 µg/mL | 12.5 µg/mL | 50 µg/mL | 12.5 µg/mL | – | – | – | – | – | – | – | – | – | –
6 | PRT1254 (DVDECSEGTDDCHIDAICQNTPKSYKCLCKPGYKGEGKQCE; listed as Homo sapiens) | 12.5 µg/mL | – | – | – | – | – | – | – | – | – | – | 50 µg/mL | 50 µg/mL | 25 µg/mL | 50 µg/mL | 12.5 µg/mL | 12.5 µg/mL | 25 µg/mL | 50 µg/mL | 12.5 µg/mL | MIC against P. vulgaris (Proteus vulgaris; [11]): 25 µg/mL
7 | PRT680 (DVNECAEGSPCSPGWCENLPGSFRCTCAQGYAPAPDGRSCL; listed as Homo sapiens) | 12.5 µg/mL | – | – | – | – | – | – | – | – | – | – | – | – | – | – | – | – | – | – | – | MIC A. hydrophila (Aeromonas hydrophila; 96-well plate, 37° C., 10 h): 12.5 µg/mL; MIC P. aeruginosa (Pseudomonas aeruginosa; 96-well plate, 37° C., 10 h): 25 µg/mL; MIC E. coli BL21 (E. coli BL21; 96-well plate, 37° C., 10 h): 25 µg/mL; MIC S. marcescens (Serratia marcescens; 96-well plate, 37° C., 10 h): 25 µg/mL; MIC P. mirabilis (Proteus mirabilis; 96-well plate, 37° C., 10 h): 12.5 µg/mL; MIC E. cloacae (Enterobacter cloacae; 96-well plate, 37° C., 10 h): 25 µg/mL; MIC K. pneumonia (Klebsiella pneumonia; 96-well plate, 37° C., 10 h): 50 µg/mL; MIC M. catarrhalis (Moraxella catarrhalis; 96-well plate, 37° C., 10 h): 50 µg/mL; MIC C. diversus (Citrobacter diversus; 96-well plate, 37° C., 10 h): 25 µg/mL; MIC P. vulgaris (Proteus vulgaris; 96-well plate, 37° C., 10 h): 50 µg/mL
8 | PRT1218 (DINECEREECENGGSCVNVFGSFLCNCTPGYVGQYCG; listed as Homo sapiens) | 12.5 µg/mL | – | – | – | – | – | – | – | – | – | – | 12.5 µg/mL | 25 µg/mL | 25 µg/mL | 25 µg/mL | 12.5 µg/mL | 12.5 µg/mL | 12.5 µg/mL | 12.5 µg/mL | 25 µg/mL | MIC against P. vulgaris (Proteus vulgaris; [11]): 12.5 µg/mL
9 | PRT607 (CDCHPEGSLSLQCKDDGRCECREGFVGNRCDQCEENYFYNRSWPGCQE; listed as Homo sapiens) | 50 µg/mL | – | – | – | – | – | – | – | – | – | – | – | – | – | – | – | – | – | – | – | MIC A. hydrophila (Aeromonas hydrophila; 96-well plate, 37° C., 10 h): 12.5 µg/mL; MIC P. aeruginosa (Pseudomonas aeruginosa; 96-well plate, 37° C., 10 h): 12.5 µg/mL; MIC E. coli BL21 (E. coli BL21; 96-well plate, 37° C., 10 h): 25 µg/mL; MIC S. marcescens (Serratia marcescens; 96-well plate, 37° C., 10 h): 50 µg/mL; MIC P. mirabilis (Proteus mirabilis; 96-well plate, 37° C., 10 h): 50 µg/mL; MIC E. cloacae (Enterobacter cloacae; 96-well plate, 37° C., 10 h): 50 µg/mL; MIC K. pneumonia (Klebsiella pneumonia; 96-well plate, 37° C., 10 h): 25 µg/mL; MIC M. catarrhalis (Moraxella catarrhalis; 96-well plate, 37° C., 10 h): 12.5 µg/mL; MIC C. diversus (Citrobacter diversus; 96-well plate, 37° C., 10 h): 50 µg/mL; MIC P. vulgaris (Proteus vulgaris; 96-well plate, 37° C., 10 h): 12.5 µg/mL
10 | PRT1095 (EVQWCGFSPCPHGAQCQPVLQGFECIANAVFNGQSGQ; listed as Homo sapiens) | 50 µg/mL | 25 µg/mL | 50 µg/mL | 12.5 µg/mL | 50 µg/mL | 25 µg/mL | 12.5 µg/mL | 25 µg/mL | 50 µg/mL | 25 µg/mL | 12.5 µg/mL | – | – | – | – | – | – | – | – | – | –
